In a compilation of properties of binary mixtures (doi:10.1021/acs.jpcb.5b11900):

Experiment: xn = mol fraction of the nth substance listed
Settings: 101 kPa

CCCC[NH3+].O=[N+]([O-])[O-] + CC[NH3+].O=[N+]([O-])[O-]
Settings | electrical conductivity, x2 = 0.25 [S/m] | electrical conductivity, x2 = 0.5 [S/m] | electrical conductivity, x2 = 0.75 [S/m] | viscosity, x2 = 0.25 [mPa·s] | viscosity, x2 = 0.5 [mPa·s] | viscosity, x2 = 0.75 [mPa·s]
288.15 K | – | 0.646 | – | – | – | –
293.15 K | 0.507 | 0.792 | 1.2 | 104.4 | 82.3 | 62
298.15 K | 0.615 | 0.951 | 1.43 | 83.7 | 66.6 | 50.6
303.15 K | 0.742 | 1.13 | – | 68.1 | 54.7 | –
308.15 K | – | 1.33 | 1.95 | – | 45.6 | 35.5
313.15 K | 1.03 | 1.54 | 2.24 | 47 | 38.5 | 30.6
318.15 K | 1.2 | 1.77 | 2.55 | 39.5 | 32.7 | 26
323.15 K | – | 2.02 | 2.88 | – | 28.1 | 22.6
328.15 K | – | – | – | 29 | 24.4 | 19.8
333.15 K | – | – | – | – | 21.3 | 17.6
338.15 K | – | – | – | – | 18.7 | –
343.15 K | – | – | – | – | 16.6 | 13.8
348.15 K | – | – | – | 17.2 | 14.8 | 12.4
353.15 K | – | – | – | – | – | 11.3

CCC[NH3+].O=[N+]([O-])[O-] + CC[NH3+].O=[N+]([O-])[O-]
x2 = 0.5
Settings | electrical conductivity [S/m] | viscosity [mPa·s]
288.15 K | 0.991 | –
298.15 K | 1.42 | 53
308.15 K | 1.93 | 37.1
313.15 K | 2.22 | 31.6
323.15 K | 2.85 | 23.5
328.15 K | – | 20.5
333.15 K | – | 18.1
338.15 K | – | 16
343.15 K | – | 14.3
348.15 K | – | 12.8

CC[NH3+].O=[N+]([O-])[O-] + CC[N+](CC)(CC)CC.O=[N+]([O-])[O-]
x2 = 0
Settings | electrical conductivity [S/m] | viscosity [mPa·s]
293.15 K | 1.93 | 43.5
298.15 K | 2.25 | 36.5
303.15 K | 2.6 | 31
308.15 K | 2.97 | 26.5
313.15 K | 3.37 | 22.8
318.15 K | 3.78 | 20
323.15 K | 4.22 | 17.6
328.15 K | – | 15.6
333.15 K | – | 13.8
343.15 K | – | 11.2
348.15 K | – | 10.2
353.15 K | – | 9.2

CCC[NH3+].O=[N+]([O-])[O-] + CCCC[NH3+].O=[N+]([O-])[O-]
x1 = 0.5
Settings | electrical conductivity [S/m] | viscosity [mPa·s]
298.15 K | 0.606 | 80.6
303.15 K | 0.729 | 65.7
308.15 K | 0.866 | 54.2
318.15 K | 1.18 | 38.3
333.15 K | – | 24.4
338.15 K | – | 21.3
348.15 K | – | 16.7
353.15 K | – | 14.9
